Test results published in patent US10030020B2, “Spirocycle compounds and methods of making and using same” (Abide Therapeutics, Inc., priority 2016, dated 2018).
pIC50: −log10 of the molar value.

What was measured:
FAAH [1] = target: T1, FAAH (Mus musculus (Mouse), UniProt O08914); assay: In vitro competitive activity-based protein profiling (mouse brain membrane fraction or cell lysates), FAAH band; assay type: biochemical; conditions: mouse proteome; for inhibition at 1 µM: read-out: FAAH % Inh 1 μM (mouse); for pIC50: competitive ABPP
T1 sequence (O08914 whole entry): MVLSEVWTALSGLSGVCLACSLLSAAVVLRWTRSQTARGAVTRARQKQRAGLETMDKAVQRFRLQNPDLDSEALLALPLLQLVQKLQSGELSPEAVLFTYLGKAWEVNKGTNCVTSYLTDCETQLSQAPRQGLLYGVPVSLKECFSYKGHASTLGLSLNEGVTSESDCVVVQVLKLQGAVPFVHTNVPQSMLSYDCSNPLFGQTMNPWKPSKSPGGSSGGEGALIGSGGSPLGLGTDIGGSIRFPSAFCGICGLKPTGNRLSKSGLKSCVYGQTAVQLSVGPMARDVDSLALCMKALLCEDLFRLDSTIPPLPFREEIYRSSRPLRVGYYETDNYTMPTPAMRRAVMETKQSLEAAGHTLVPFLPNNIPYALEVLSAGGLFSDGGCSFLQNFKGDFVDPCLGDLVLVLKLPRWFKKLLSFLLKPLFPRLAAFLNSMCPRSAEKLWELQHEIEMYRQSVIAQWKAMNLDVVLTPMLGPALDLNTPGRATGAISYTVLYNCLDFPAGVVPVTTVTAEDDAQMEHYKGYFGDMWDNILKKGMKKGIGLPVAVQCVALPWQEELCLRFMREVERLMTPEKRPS
How it was run: (§1)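 Competitive ABPP: proteome 1.0 mg/mL protein + inhibitor, 30 min, 37° C; FP-Rh probe (stock 50 μM in DMSO) added, 30 min, 37° C; SDS quench, SDS-PAGE, fluorescent band intensity read.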

ABHD6 [2] = target: T2, ABHD6 (Mus musculus (Mouse), UniProt Q8R2Y0); assay: In vitro competitive activity-based protein profiling (mouse brain membrane fraction or cell lysates), ABHD6 band; assay type: biochemical; conditions: mouse proteome; for inhibition at 1 µM: read-out: ABHD6 % Inh 1 μM (mouse); for pIC50: competitive ABPP
T2 sequence (Q8R2Y0 whole entry): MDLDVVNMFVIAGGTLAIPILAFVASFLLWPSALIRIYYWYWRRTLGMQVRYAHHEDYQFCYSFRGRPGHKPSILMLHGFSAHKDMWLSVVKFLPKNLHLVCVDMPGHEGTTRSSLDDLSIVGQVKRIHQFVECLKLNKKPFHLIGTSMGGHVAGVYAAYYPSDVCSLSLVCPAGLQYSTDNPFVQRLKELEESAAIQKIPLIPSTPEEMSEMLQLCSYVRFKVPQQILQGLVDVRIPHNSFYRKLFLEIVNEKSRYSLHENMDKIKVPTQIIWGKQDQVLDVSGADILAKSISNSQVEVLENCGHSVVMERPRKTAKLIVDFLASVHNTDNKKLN
How it was run: as §1

FAAH [3] = target: T1, FAAH; assay: Mouse brain proteomes from inhibitor treated mice (oral gavage, sacrificed 4 h after administration, ABPP analysis), FAAH; assay type: in vivo, mouse (C57Bl/6J); conditions: 5 mg/kg oral gavage
Procedure: (§2) Preparation of Mouse Brain Proteomes from Inhibitor Treated Mice.
(§3) Inhibitors were administered to wild-type C57Bl/6J by oral gavage in a vehicle, e.g. PEG400/Ethanol/PBS (7/2/1). Each animal was sacrificed 4 h following administration and brain proteomes were prepared and analyzed according to previously established methods (See Niphakis, M. J., et al. (2011) ACS Chem. Neurosci. and Long, J. Z., et al. Nat. Chem. Biol. 5:37-44). Data from this assay is shown in Table 2 (% inhibition at 5 mg/kg).

MAGL [4] = target: T3, MAGL (Mus musculus (Mouse), UniProt O35678); assay: Mouse brain proteomes from inhibitor treated mice (oral gavage, sacrificed 4 h after administration, ABPP analysis); assay type: in vivo, mouse (C57Bl/6J); conditions: 5 mg/kg oral gavage
T3 sequence (O35678 whole entry): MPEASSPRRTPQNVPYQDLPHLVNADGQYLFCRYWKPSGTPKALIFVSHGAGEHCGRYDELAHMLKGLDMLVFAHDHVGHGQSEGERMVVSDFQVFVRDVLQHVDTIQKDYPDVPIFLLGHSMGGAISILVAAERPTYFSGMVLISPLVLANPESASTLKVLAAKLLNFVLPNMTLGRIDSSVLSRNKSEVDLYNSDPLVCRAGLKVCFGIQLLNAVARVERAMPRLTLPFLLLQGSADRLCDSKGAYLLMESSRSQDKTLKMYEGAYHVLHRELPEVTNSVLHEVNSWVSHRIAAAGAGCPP
Procedure: as §2, §3

ABHD6 [5] = target: T2, ABHD6; assay: Mouse brain proteomes from inhibitor treated mice (oral gavage, sacrificed 4 h after administration, ABPP analysis), ABHD6; assay type: in vivo, mouse (C57Bl/6J); conditions: 5 mg/kg oral gavage
Procedure: as §2, §3

MAGL [6] = target: T3, MAGL; assay: In vitro competitive activity-based protein profiling (mouse brain membrane fraction or cell lysates), MAGL band; assay type: biochemical; conditions: mouse proteome; for inhibition at 1 µM: read-out: MAGL % Inh 1 μM (mouse); for pIC50: competitive ABPP
Procedure: In Vitro Competitive Activity-Based Protein Profiling.
Proteomes (mouse brain membrane fraction or cell lysates) (50 μL, 1.0 mg/mL total protein concentration) were preincubated with varying concentrations of inhibitors at 37° C. After 30 min, FP—Rh (1.0 μL, 50 μM in DMSO) was added and the mixture was incubated for another 30 min at 37° C. Reactions were quenched with SDS loading buffer (50 μL-4×) and run on SDS-PAGE.

Structure (SMILES) | inhibition at 1 µM (FAAH [1]) [%] | pIC50 (FAAH [1]) | inhibition at 1 µM (ABHD6 [2]) [%] | pIC50 (ABHD6 [2]) | FAAH % Inh 5 mg/kg (mouse) (FAAH [3]) | MAGL % Inh 5 mg/kg (mouse) (MAGL [4]) | ABHD6 % Inh 5 mg/kg (mouse) (ABHD6 [5]) | inhibition at 1 µM (MAGL [6]) [%] | pIC50 (MAGL [6])
O=C(OC(C(F)(F)F)C(F)(F)F)N1CCC2(CCCN2Cc2ccc(Cl)cc2OCCF)CC1 [Example 30, 1,1,1,3,3,3-Hexafluoropropan-2-yl 1-(4-chloro-2-(2-fluoroethoxy)benzyl)-1,8-diazaspiro[4.5]decane-8-carboxylate] | < 25 | < 6.00 | < 25 | < 6.00 | # (# is <25%) | ### (### is ≥75%) | # (# is <25%) | > 75 | > 7.00
O=C(OC(C(F)(F)F)C(F)(F)F)N1CCC2(CCCN2Cc2ccc(OCCF)cc2)CC1 [Example 31, 1,1,1,3,3,3-Hexafluoropropan-2-yl 1-(4-(2-fluoroethoxy)benzyl)-1,8-diazaspiro[4.5]decane-8-carboxylate] | < 25 | < 6.00 | < 25 | < 6.00 | # (# is <25%) | ### (### is ≥75%) | ## (## is equal to or greater than 25% but less than 75%) | > 75 | > 7.00
CCOc1cc(CN2CCCC23CCN(C(=O)OC(C(F)(F)F)C(F)(F)F)CC3)ccc1Cl [Example 32, 1,1,1,3,3,3-Hexafluoropropan-2-yl 1-(4-chloro-3-ethoxybenzyl)-1,8-diazaspiro[4.5]decane-8-carboxylate] | < 25 | < 6.00 | < 25 | < 6.00 | # (# is <25%) | ### (### is ≥75%) | # (# is <25%) | > 75 | > 7.00
O=C(OC(C(F)(F)F)C(F)(F)F)N1CCC2(CCCN2Cc2cc(Cl)cc(N3CCOCC3)c2)CC1 [Example 33, 1,1,1,3,3,3-Hexafluoropropan-2-yl 1-(3-chloro-5-morpholinobenzyl)-1,8-diazaspiro[4.5]decane-8-carboxylate] | < 25 | < 6.00 | < 25 | < 6.00 | ## (## is equal to or greater than 25% but less than 75%) | ### (### is ≥75%) | # (# is <25%) | > 75 | > 7.00

Other lines, results leading:

inhibition at 1 µM (FAAH [1]) [%] | pIC50 (FAAH [1]) | inhibition at 1 µM (ABHD6 [2]) [%] | pIC50 (ABHD6 [2]) | FAAH % Inh 5 mg/kg (mouse) (FAAH [3]) | MAGL % Inh 5 mg/kg (mouse) (MAGL [4]) | ABHD6 % Inh 5 mg/kg (mouse) (ABHD6 [5]) | inhibition at 1 µM (MAGL [6]) [%] | pIC50 (MAGL [6]) | Structure (SMILES)
< 25 | < 6.00 | < 25 | < 6.00 | # (# is <25%) | ### (### is ≥75%) | # (# is <25%) | > 75 | > 7.00 | O=C(OC(C(F)(F)F)C(F)(F)F)N1CCC2(CCCN2Cc2cc(Cl)cc(N3CCCC3)c2)CC1 [Example 34, 1,1,1,3,3,3-Hexafluoropropan-2-yl 1-(3-chloro-5-(pyrrolidin-1-yl)benzyl)-1,8-diazaspiro[4.5]decane-8-carboxylate]
< 25 | < 6.00 | < 25 | < 6.00 | # (# is <25%) | ### (### is ≥75%) | # (# is <25%) | > 75 | > 7.00 | O=C(OC(C(F)(F)F)C(F)(F)F)N1CCC2(CCCN2Cc2cc(N3CCOCC3)cc(C(F)(F)F)c2)CC1 [Example 35, 1,1,1,3,3,3-Hexafluoropropan-2-yl 1-(3-morpholino-5-(trifluoromethyl)benzyl)-1,8-diazaspiro[4.5]decane-8-carboxylate]
